From patent publication US20180237362A1, “NOVEL POLYGODIAL ANALOGS FOR THE TREATMENT OF CANCER AND OTHER PROLIFERATIVE DISEASES” (THE BOARD OF REGENTS OF THE UNIVERSITY OF TAXAS SYSTEM, priority 2015, published 2018)

Assays:
[1] = test system: transgenic mouse glioma cells (neurosphere cultures); experiment: CytoTox-Fluor cytotoxicity assay, neurosphere glioma cultures; type: cell-based; settings: cdkn2a deletion with PDGFB or EGFRvIII; 24 h; 5 at 20 μM, CBD at 10 μM
Experimental: FIGS. 5A-D. Activity of 5 against neurosphere glioma cell cultures with clinically relevant mutations. Transgenic mouse glioma cells of defined molecular subtypes were generated by forced expression of EGFRvIII (classical GBM subtype), PDGFB (proneural GBM subtype) in cdkn2a-deficient and cdkn2a/TRPV1-doubly deficient subventricular neural precursors (NPC). These primary cell cultures were treated for 24 hours either with 10 μM CBD versus a corresponding vehicle-control (containing 0.01% DMSO) or 20 μM of 5 versus vehicle control (0.02% DMSO). Cytotoxicity was measured 24 h after incubation and base-line cytotoxicity levels in the controls were arbitrarily defined as 1. Read-outs from treated cells were normalized to their respective vehicle controls and -fold change of relative cytotoxicity was calculated. Each bar represents the mean±SD from two independent experiments; statistical significance, as determined by unpaired t-tests, is indicated: *** represents p<0.001; ** p<0.005; * p=0.0257; ns not significant).
Human mammary carcinoma MCF-7 (ATCC HTB22) cells were cultured in RPMI supplemented with 10% FBS. […]
The CytoTox-Fluor cytotoxicity assay from Promega has been used according to manufacturer's instructions. […] After 2 hours of incubation at 37° C., the fluorescence intensity was measured using the Tecan InfiniteF200 fluorescence plate reader (485 nm Ex/520 nm Em). […]

HeLa cells = experiment: Morphological changes, HeLa; type: cell-based, human; settings: P3 50 μM, 1 hour
Experimental: FIGS. 12A-B Morphological changes (20×) in HeLa cells (FIG. 12Aa-d) and HSC3 cells (FIG. 12Ba-d) with no treatment (a) or treated with Polygodial 80 μM (b), P10 4 μM (c), and P3 50 μM (d) for 1 hour. Differences in morphological changes between treatments indicate potentially unique mechanisms-of-action between polygodial and P10 (isomer), and P3 (novel analog).

[2] = test system: uterine sarcoma MES-SA cells; experiment: MTT antiproliferative assay, MES-SA; type: cell-based, human; settings: 48 h treatment, relative to DMSO control, read-out: GI50 in vitro values, MES-SA
Experimental: (§1) Human mammary carcinoma MCF-7 (ATCC HTB22) cells were cultured in RPMI supplemented with 10% FBS. The U87 cells (ATCC HTB-14) were cultured in DMEM culture medium, while the A549 cells (DSMZ ACC107) were cultured in RPMI culture medium supplemented with 10% heat-inactivated FBS. The GBM Hs683 (ATCC HTB-138) cells were cultivated in DMEM supplemented with 10% FBS. The human uterine sarcoma MES-SA (ATCC CRL1966) and MES-SA/D×5 cells were cultured in RPMI-1640 medium supplemented with 10% FBS with MES SA/D×5 maintained in the presence of 500 nM Doxorubicin (Sigma). SKMEL-28 cells (ATCC HTB72) and U373 GBM cells (ECACC 08061901) were cultured in RPMI culture medium supplemented with 10% heat-inactivated FBS. Cell culture media were supplemented with 4 mM glutamine (Lonza code BE17-605E), 100 μg/mL gentamicin (Lonza code 17-5182), and penicillin-streptomycin (200 units/ml and 200 μg/ml) (Lonza code 17-602E). The MDA-MB-231 (ATCC HTB-26) epithelial mammary adenocarcinoma cells were cultured in Eagle's minimum essential medium (EMEM; Invitrogen) containing 5% fetal calf serum (FCS, Cambrex), 2 mM L-glutamine (Invitrogen), 0.06% HEPES (Invitrogen) and penicillin (50 IU/ml)/streptomycin (50 µg/ml; Invitrogen) at 37° C. in a humidified atmosphere of 5% CO2 in air. Transformed mouse NPCs were cultured in suspension under neurosphere conditions at 37° C. in a humidified atmosphere of […] and 5% CO2 in DMEM F12 (Invitrogen 11320-074) supplemented with 1×B27 supplement (Invitrogen 17504-044), 5% penicillin-streptomycin (Biochrom 10378-017), 10 ng/ml EGF (R&D systems 236-EG), 10 ng/ml FGF (PeproTech 100-18B).
Antiproliferative properties of the synthesized compounds were evaluated by the MTT assay. All compounds were dissolved in DMSO at a concentration of either 100 μM or 50 μM prior to cell treatment. The cells were trypsinized and seeded at various cell concentrations depending on the cell type. […]

[3] = test system: MDR uterine sarcoma cell line MES-SA/Dx5; experiment: MTT antiproliferative assay, MDR MES-SA/Dx5; type: cell-based, human
Experimental: as §1
Antiproliferative properties of the synthesized compounds were evaluated by the MTT assay. All compounds were dissolved in DMSO at a concentration of either 100 μM or 50 μM prior to cell treatment. The cells were trypsinized and seeded at various cell concentrations depending on the cell type. The cells were grown for 24 h to 72 h, treated with compounds at concentrations ranging from 0.001 to 100 μM and incubated for 48 or 72 h in 100 or 200 μL media depending on the cell line used. The number of experiments and replicates varied depending on the cell line. Cells treated with 0.1% DMSO were used as a negative control; 1 μM PAO was used as a positive control.
Selection of the MES-SA/D×5 cell line was done according to Harker et al. (Harker & Sikic, 1985). The cells were split and allowed to adhere overnight. The next day cells were initially exposed to doxorubicin (DOX) at the concentration of 100 nM, which represented the GI50 concentration. The cells were maintained at this DOX concentration until their growth rate reached that of the untreated cells. The DOX concentration was then increased in two-fold increments following the same growth criteria at each concentration to a final DOX concentration of 500 nM. Each new DOX concentration required approximately 2 passages to reach the growth rate of the untreated cells.
Often, tumors initially respond to chemotherapy but eventually become refractory to the continuing treatment. Such acquired resistance commonly occurs through the development of a multi-drug resistant phenotype (MDR) (Gottesman et al., 2002 and Saraswathy & Gong, 2013) affecting many common chemotherapeutic agents, including the vinca alkaloids (Chen et al., 2000) and taxanes (Geney et al., 2002). In addition, the development of apoptosis resistance and MDR mechanisms is often related and concurrent (Ruefli et al., 2002 and Johnstone et al., 1999), and thus it was of interest to evaluate 5 against MDR cells. Towards this end, the MDR uterine sarcoma cell line MES-SA/D×5, established by growing the parent uterine sarcoma MES-SA in the presence of increasing concentrations of doxorubicin and resistant to multiple functionally and structurally unrelated molecules (Harker & Sikic, 1985), was utilized.

COC(=O)/C=C/C1=CC[C@H]2C(C)(C)CCC[C@]2(C)[C@H]1C=O [Compound 5]
cytotoxicity against GBM neurosphere cultures [1]: effectiveness similar to that of cannabidiol (CBD)
morphological changes, HeLa (HeLa cells): apoptotic figures
GI50 [2]: 40 µM
change of potency against MES-SA/Dx5 MDR cell line as compared with parent MES-SA cells ([3]; 48 h MTT): little variation in the sensitivities of the two cell lines
GI50 ([3]; 48 h treatment, MTT assay, relative to DMSO control, read-out: GI50 in vitro values, MES-SA/Dx5): 45 µM
